According to BindingDB's records for patent US11248013 (Rakovina Therapeutics, 2022):

Biological target: Poly [ADP-ribose] polymerase 1 (Homo sapiens, UniProt P09874)
Assay: Enzyme Assay
Procedure: Inhibition of PARP-1 enzymatic activities was measured using an HT Universal Colorimetric PARP Assay Kit (Trevigen, catalogue #4677-096-K) following the standard procedures. Serial dilutions of PARP compounds were added to appropriate wells. The compound was incubated with PARP enzyme at RT for 10 min, and the reaction was initiated by addition of the PARP substrate cocktail, Each concentration of compound was tested in triplicate wells. After 15 min reaction, the reaction was stopped, and the Strep-HRP was added into each well and incubated for 1 h at RT. After addition of TACS-Sapphire colorimetric substrate and incubated in dark for 15 min, the OD450 was read out with an EnVision instrument. IC50 values (the concentration at which 50% of the enzyme activity is inhibited) were calculated, which are determined over a range of different concentrations, normally from 10 uM to 0.1 nM.

Sequence of Poly [ADP-ribose] polymerase 1 (P09874 whole entry): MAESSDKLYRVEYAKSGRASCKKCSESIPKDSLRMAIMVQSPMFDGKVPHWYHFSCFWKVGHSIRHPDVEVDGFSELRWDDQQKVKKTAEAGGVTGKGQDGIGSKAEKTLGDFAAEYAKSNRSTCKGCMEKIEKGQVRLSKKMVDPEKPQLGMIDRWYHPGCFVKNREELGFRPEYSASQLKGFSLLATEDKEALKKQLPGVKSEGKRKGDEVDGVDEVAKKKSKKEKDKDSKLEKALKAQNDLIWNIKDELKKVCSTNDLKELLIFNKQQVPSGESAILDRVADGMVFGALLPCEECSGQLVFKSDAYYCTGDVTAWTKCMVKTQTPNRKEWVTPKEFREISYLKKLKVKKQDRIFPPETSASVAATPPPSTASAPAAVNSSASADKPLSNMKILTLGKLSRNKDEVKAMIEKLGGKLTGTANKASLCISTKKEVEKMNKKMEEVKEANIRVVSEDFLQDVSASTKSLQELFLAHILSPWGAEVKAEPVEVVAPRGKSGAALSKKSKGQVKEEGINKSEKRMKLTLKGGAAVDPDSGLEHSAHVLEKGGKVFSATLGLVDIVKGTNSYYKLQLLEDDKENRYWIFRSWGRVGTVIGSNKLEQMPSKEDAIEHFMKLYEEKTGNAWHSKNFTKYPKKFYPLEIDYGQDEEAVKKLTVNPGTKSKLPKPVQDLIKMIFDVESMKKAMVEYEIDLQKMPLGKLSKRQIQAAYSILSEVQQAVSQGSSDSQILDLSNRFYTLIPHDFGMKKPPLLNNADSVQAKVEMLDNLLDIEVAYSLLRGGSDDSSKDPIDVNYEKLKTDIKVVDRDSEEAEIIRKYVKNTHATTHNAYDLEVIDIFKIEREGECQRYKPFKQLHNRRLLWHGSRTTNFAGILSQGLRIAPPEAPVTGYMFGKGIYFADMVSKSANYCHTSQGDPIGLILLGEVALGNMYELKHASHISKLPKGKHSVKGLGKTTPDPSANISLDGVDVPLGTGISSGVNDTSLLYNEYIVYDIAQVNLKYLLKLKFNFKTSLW

CC(C)(C)C(=O)N1CCP(=O)(c2cc(Cc3n[nH]c(=O)c4ccccc34)ccc2F)CC1 [US11248013, Example 10]
IC50: in the range around 550 nM
